Measured values published in ChEMBL document CHEMBL1158844, “Two new isoflavones from Ceiba pentandra and their effect on cyclooxygenase-catalyzed prostaglandin biosynthesis” (J Nat Prod, 1998).

Experiments:
[1] = target: T1, Prostaglandin G/H synthase 2 (Ovis aries, UniProt P79208); experiment: Inhibition of sheep placental cotyledons COX2-mediated prostaglandin production
T1 sequence (P79208 whole entry): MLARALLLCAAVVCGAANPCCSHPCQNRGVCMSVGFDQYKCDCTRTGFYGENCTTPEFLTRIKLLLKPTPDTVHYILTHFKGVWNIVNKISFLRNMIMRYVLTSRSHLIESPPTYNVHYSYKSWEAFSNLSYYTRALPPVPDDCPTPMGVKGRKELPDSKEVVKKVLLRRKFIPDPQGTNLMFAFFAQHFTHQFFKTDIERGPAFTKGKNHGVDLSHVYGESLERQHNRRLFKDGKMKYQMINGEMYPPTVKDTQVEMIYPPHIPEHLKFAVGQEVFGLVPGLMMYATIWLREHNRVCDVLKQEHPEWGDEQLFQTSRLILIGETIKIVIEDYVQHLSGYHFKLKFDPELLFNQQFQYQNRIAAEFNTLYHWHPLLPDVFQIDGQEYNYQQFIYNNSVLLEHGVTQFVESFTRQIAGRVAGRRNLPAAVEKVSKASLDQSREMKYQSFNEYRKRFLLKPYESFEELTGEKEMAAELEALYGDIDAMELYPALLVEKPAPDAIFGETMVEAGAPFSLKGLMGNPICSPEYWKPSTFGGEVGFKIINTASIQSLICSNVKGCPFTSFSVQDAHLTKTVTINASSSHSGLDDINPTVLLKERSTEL

[2] = target: T2, Prostaglandin G/H synthase 1 (Bos taurus, UniProt O62664); experiment: Inhibition of bovine seminal vesicle microsomal COX1-mediated prostaglandin production; type: microsomes
T2 sequence (O62664 whole entry): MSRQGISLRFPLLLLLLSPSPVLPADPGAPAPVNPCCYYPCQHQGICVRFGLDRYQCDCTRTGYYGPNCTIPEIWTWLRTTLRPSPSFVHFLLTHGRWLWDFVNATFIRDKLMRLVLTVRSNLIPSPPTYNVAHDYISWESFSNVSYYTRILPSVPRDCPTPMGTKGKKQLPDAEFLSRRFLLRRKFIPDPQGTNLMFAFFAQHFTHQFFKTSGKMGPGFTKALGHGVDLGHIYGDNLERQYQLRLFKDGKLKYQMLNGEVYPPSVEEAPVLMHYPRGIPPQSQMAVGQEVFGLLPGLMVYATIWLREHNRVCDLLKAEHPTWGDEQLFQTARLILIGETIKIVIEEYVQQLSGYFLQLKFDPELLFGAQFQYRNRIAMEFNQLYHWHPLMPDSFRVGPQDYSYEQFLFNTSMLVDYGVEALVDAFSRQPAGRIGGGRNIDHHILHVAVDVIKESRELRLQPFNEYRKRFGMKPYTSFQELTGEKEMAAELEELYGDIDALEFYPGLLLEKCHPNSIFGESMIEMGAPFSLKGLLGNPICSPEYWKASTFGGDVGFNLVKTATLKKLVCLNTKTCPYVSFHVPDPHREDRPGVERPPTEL

| Structure (SMILES) | IC50 [1] | IC50 [2] |
| --- | --- | --- |
| COc1cc(O)c2c(=O)c(-c3cc(OC)c(OC)c(O[C@@H]4O[C@H](CO)[C@@H](O)[C@H](O)[C@H]4O)c3)coc2c1 | 1200 µM | 381 µM |
| COc1cc(O)c2c(=O)c(-c3cc(O)c(OC)c(OC)c3)coc2c1 | 900 µM | 97 µM |
| Oc1cc(O)c2c(c1)O[C@H](c1ccc(O)c(O)c1)[C@@H](O)C2 [CIANIDANOL] | – | 80 µM |
